# Reference: US20210393636A1, “TREATMENT OF CNS AND DEVELOPMENTAL DISORDERS USING HIGH DOSE 5-FORMYL-(6S)-TETRAHYDROFOLATE” (priority 2019, published 2021)
# Assays:
# [1] = Folate absorption in serum after single high-dose oral administration of different folates (Example 1)
# Method: For this study, 4 mg/kg folate was administered as a single dose to 250-300 g male Wistar rats. […] For each form of folate 4 time points of 30 min, 1 h, 2 h and 4 h were evaluated. For each time point 2 rats were used. The folate form dissolved in 0.5 ml buffered saline was administered orally using a blunt needle attached to a 1 ml syringe. The rats were euthanized by CO2 inhalation.
# Blood was drawn cardiac puncture, allowed to clot for 30 min, serum separated, diluted in equal volume of 4% ascorbate pH 7.2 and kept frozen at −20 C. Folate forms in the serum was determined by HPLC and the peaks were quantified by comparing to known standards as described below.
# Folate standards (5-MTHF, FA, THF and Formyl-THF) and 13C-labeled stable isotope internal standards (13C5-5-MTHF, 13C5-FA and 13C-Formyl-THF) were obtained from Schircks Laboratories (Switzerland). Formic acid, ascorbic acid and dithiothreitol (DTT) were obtained from Fluka and Optima LC-MS grade methanol from Fisher Scientific. Stock standards for each folate metabolite and internal standards were prepared as 1 mmol/L solutions in water containing 2 mg/mL ascorbic acid and stored at −80° C. Microtiter plates used for were purchased from NUNC.
# Liquid chromatography electrospray ionization mass spectrometry (LC-ESI-MS/MS) analysis of plasma 5-MTHF, FA, THF, Formyl-THF was performed on a Sciex 5500QTRAP mass spectrometer (Foster City, Calif., USA) coupled with a Shimadzu ultra-high pressure Nexera chromatograph system (Kyoto, Japan). The MS/MS experiments were performed under positive electrospray ionization (+ESI) with multiple-reaction monitoring (MRM) using a Turbolon Spray electrospray source operating at a voltage of 5.5 kV and desolvation temperature of 500° C. The calibration curve was prepared in water containing 2 mg/mL ascorbic acid over a range of 12.5-400 nmol/L for each folate analyte.
# Sample preparation involved combining 50 µl of blank, standard, control or sample with 10μ1 62.5 mM dithiothreitol, 20 mg/ml ascorbic acid and 2.5 μM 13C5-5-MTHF, 13C5-FA, 13C-Formyl-THF in 1.5 mL Eppendorf tubes, mixed by vortex and incubated for 10 minutes at room temperature in the dark. Next, samples were deproteinized with 5 volumes of methanol containing 2 mg/ml of ascorbic acid and vortexed and centrifuged at 14800 rpm for 10 minutes. Supernatant was loaded in a 96-well microtiter plate for analysis. The samples were analyzed following injection of 10 μL of extract on a Synergi Hydro 4μ 150×3 mm with a 4×2 mm SecurityGuard column (Phenomenex, Calif., USA) maintained at 40° C. (Phenomenex) and eluted in a gradient with buffer A (100% water with 0.1% formic acid) and buffer B (100% Methanol with 0.1% formic acid). The flow rate was 0.5 mL/min, with a gradient over a total run time of 6 min: 0.0-2.0 min, 0-100% B; 2.5 min, 100% B; 2.6-6.0 min, 0% B.
# Total analytical analysis, including column re-equilibration, was 6 minutes. Eluent flow from the column was diverted to waste at the beginning and end of each run and was only directed to the source for the period from 1.5-3.5 minutes. The LC-MS/MS data was acquired and processed using Analyst 1.5.2 software (Sciex).
# Values reported include both D- and L-forms.
# [2] = Total folates in serum 24 h after oral administration of folate forms (Example 2); format: in vivo, rats; design: Total Folates in Serum (total 5-MTHF D- and L- plus folic acid): unit not given here; details: for Total Folates in Serum (total 5-MTHF D- and L- plus folic acid): 4 mg/kg oral, 24 h
# Method: (§1) This study evaluated the difference in folate absorption in non-pregnant rats, pregnant rats, pregnant rats injected with a control antibody, and pregnant rats injected with antibody to the folate receptor alpha. Eight (8) rats were assigned to each group for a total of thirty-two (32) rats. Two rats within each group were administered a single oral dose of PGA, 5-methyl-(6S)-THF, folinic acid or 5-formyl-(6S)-THF as a liquid solution and sacrificed at 24-hours to evaluate folate absorption patterns. The total amount of each form of folate administered to each rat was 4 mg/kg.
# Serum was withdrawn immediately before the rat was sacrificed. For extraction of folate from serum, an aliquot of the serum was diluted in 3 volumes of phosphate buffer pH 5.5, placed in a boiling water bath for 10 min, cooled, the protein precipitate separated by centrifugation and the clear supernatant was assayed for folate concentration.
# [3] = Tissue distribution of folates 24 h after oral administration of folate forms (Example 2); format: in vivo, rats; details: for Total 5-MTHF + PGA in Brain: derived from cortex and cerebellum
# Method: as §1
# Additional analyses were performed in various tissues of the pregnant and non-pregnant rats. For tissues other than serum, each tissue was collected, weighed and stored at −20 C. For the folate assay each tissue was suspended in 3 volumes of phosphate buffer containing 2% ascorbic acid pH 7.4 and homogenized using a polytron probe. An aliquot of this homogenate was diluted 10 fold in PO4 buffer PH 5.5 containing 0.2% ascorbic acid, in a glass tube, sealed and placed in a boiling water bath for 10 min. The tube was cooled to room temperature, precipitate removed by centrifugation and the clear supernatant assayed for folate. Brain concentrations were derived from cortex and cerebellum.
# [4] = Tissue distribution of folates 24 h after oral administration of folate forms to rat pups, with and without FR Ab (Example 3); format: in vivo; details: for Folate (mean), Cerebellum / Folate (mean), Cerebrum / Folate (mean), Kidney / Folate (mean), Liver: PND 21 rat pups, 4 mg/kg oral, 24 h
# Method: To determine tissue distribution of orally administered folate forms in young rat pups and study the effect of folate receptor antibodies on this distribution. PND 21 rat pups weighing about 50 g were administered folate forms orally at a dose of 4 mg/kg. Animals were euthanized after 24 h and tissues collected for analyzing total methylfolate in each tissue to provide a measure of normal distribution.
# [5] = serum, 4 mg/kg single oral dose, 0.5 hr
# [6] = serum, 4 mg/kg single oral dose, 1 hr
# [7] = serum, 4 mg/kg single oral dose, 2 hr
# [8] = serum, 4 mg/kg single oral dose, 4 hr
# [9] = non-pregnant rats, without antibody, 4 mg/kg oral, 24 h
# [10] = pregnant rats, + Control IgG, 4 mg/kg oral, 24 h
# [11] = pregnant rats, + FRAb, 4 mg/kg oral, 24 h
# [12] = pregnant rats, w/o IgG, 4 mg/kg oral, 24 h
# [13] = male, Wistar, rat, in vivo, po, 4 mg/kg
# [14] = male, Wistar, rat, in vivo, po, 4 mg/kg, 0.5 h
# [15] = male, Wistar, rat, in vivo, po, 4 mg/kg, 1 h
# [16] = male, Wistar, rat, in vivo, po, 4 mg/kg, 2 h
# [17] = male, Wistar, rat, in vivo, po, 4 mg/kg, 4 h
smiles,measurement,setting,value
Nc1nc2c(c(=O)[nH]1)N(C=O)[C@@H](CNc1ccc(C(=O)N[C@@H](CCC(=O)O)C(=O)O)cc1)CN2 [5-formyl-(6S)-tetrahydrofolate],serum THF and 5-MTHF compared to folinic acid,[1]; especially at one hour,Much better
same,THF generation and total uptake compared to 5-methyl-(6S)-THF administration,"[1]; serum, 4 mg/kg oral",much greater
same,5-FoTHF,[1]; [5],68.2 ng/mL
same,THF,[1]; [5],22.9 ng/mL
same,Total Uptake,[1]; [5],252.6 ng/mL
same,5-MTHF,"[1]; serum, 4 mg/kg single oral dose, 0.5 hr, D- and L-forms",161.6 ng/mL
same,5-FoTHF,[1]; [6],97.3 ng/mL
same,THF,[1]; [6],35.8 ng/mL
same,Total Uptake,[1]; [6],375.0 ng/mL
same,5-MTHF,"[1]; serum, 4 mg/kg single oral dose, 1 hr, D- and L-forms",241.9 ng/mL
same,5-FoTHF,[1]; [7],19.7 ng/mL
same,THF,[1]; [7],9.0 ng/mL
same,Total Uptake,[1]; [7],162.9 ng/mL
same,5-MTHF,"[1]; serum, 4 mg/kg single oral dose, 2 hr, D- and L-forms",144.1 ng/mL
same,5-FoTHF,[1]; [8],7.0 ng/mL
same,THF,[1]; [8],39.1 ng/mL
same,Total Uptake,[1]; [8],216.1 ng/mL
same,5-MTHF,"[1]; serum, 4 mg/kg single oral dose, 4 hr, D- and L-forms",173.5 ng/mL
same,Total Folates in Serum (total 5-MTHF D- and L- plus folic acid),[2]; Non-pregnant rats,27.5
same,concentrations of total folates in serum compared to other folate forms,[2]; especially pregnant rats injected with folate receptor antibody,superior concentrations of total folates
same,Total Folates in Serum (total 5-MTHF D- and L- plus folic acid),"[2]; pregnant rats, Control Ab + Form",247.1
same,Total Folates in Serum (total 5-MTHF D- and L- plus folic acid),"[2]; pregnant rats, FRAb + Form",228.8
same,Total Folates in Serum (total 5-MTHF D- and L- plus folic acid),"[2]; pregnant rats, Form Only",88.9
same,"concentrations of folates in ovary, brain and cerebellum compared to 5-methyl-6S-THF",[3]; non-pregnant rats without folate receptor antibody,much better concentrations of folates
same,Total 5-MTHF + PGA in Cerebellum,[3]; [9],8.2
same,Total 5-MTHF + PGA in Cortex,[3]; [9],1.5
same,Total 5-MTHF + PGA in Kidney,[3]; [9],20.4
same,Total 5-MTHF + PGA in Liver,[3]; [9],93.0
same,Total 5-MTHF + PGA in Ovary,[3]; [9],9.8
same,Total 5-MTHF + PGA in Brain,[3]; [9],4.8
same,folate concentrations in placenta and embryo compared to 5-methyl-6S-THF or folinic acid,[3]; pregnant rats without folate receptor antibody,much better folate concentrations
same,Total 5-MTHF + PGA in Embryo,[3]; [10],2.8 ng/mg
same,Total 5-MTHF + PGA in Kidney,[3]; [10],19.8 ng/mg
same,Total 5-MTHF + PGA in Liver,[3]; [10],38.2 ng/mg
same,Total 5-MTHF + PGA in Ovary,[3]; [10],7.1 ng/mg
same,Total 5-MTHF + PGA in Placenta,[3]; [10],3.3 ng/mg
same,Total 5-MTHF + PGA in Brain,[3]; [10],4.8 ng/mg
same,Total 5-MTHF + PGA in Embryo,[3]; [11],2.3 ng/mg
same,Total 5-MTHF + PGA in Kidney,[3]; [11],14.3 ng/mg
same,Total 5-MTHF + PGA in Liver,[3]; [11],39.1 ng/mg
same,Total 5-MTHF + PGA in Ovary,[3]; [11],3.2 ng/mg
same,Total 5-MTHF + PGA in Placenta,[3]; [11],3.0 ng/mg
same,Total 5-MTHF + PGA in Brain,[3]; [11],3.5 ng/mg
same,Total 5-MTHF + PGA in Embryo,[3]; [12],7.2 ng/mg
same,Total 5-MTHF + PGA in Kidney,[3]; [12],20.2 ng/mg
same,Total 5-MTHF + PGA in Liver,[3]; [12],44.8 ng/mg
same,Total 5-MTHF + PGA in Ovary,[3]; [12],9.3 ng/mg
same,Total 5-MTHF + PGA in Placenta,[3]; [12],9.0 ng/mg
same,Total 5-MTHF + PGA in Brain,[3]; [12],2.0 ng/mg
same,"Folate (mean), Cerebellum",[4]; + FRAb (100 ug IP 24 h prior),69.5 ng/mg
same,"Folate (mean), Cerebrum",[4]; + FRAb (100 ug IP 24 h prior),13.2 ng/mg
same,"Folate (mean), Kidney",[4]; + FRAb (100 ug IP 24 h prior),48.7 ng/mg
same,"Folate (mean), Liver",[4]; + FRAb (100 ug IP 24 h prior),133.44 ng/mg
same,"Folate (mean), Cerebellum",[4]; no FRAb,93.3 ng/mg
same,"Folate (mean), Cerebrum",[4]; no FRAb,15.3 ng/mg
same,"Folate (mean), Kidney",[4]; no FRAb,52.1 ng/mg
same,"Folate (mean), Liver",[4]; no FRAb,80.0 ng/mg
same,change of folates in the brain on antibody administration,[4]; antibody-treated pups vs pups without antibody,The opposite is observed
same,folate concentrations in cerebellum and cerebrum compared to 5-methyl-6S-THF,[4]; rat pups with and without the antibody,much higher folate concentrations
"Nc1nc2ncc(CNc3ccc(C(=O)N[C@@H](CCC(=O)O)C(=O)O)cc3)nc2c(=O)[nH]1 [Folic Acid, pteroylglutamic acid]",concentration at 0.5 h,[1]; [13],0.0424 µg/mL
same,concentration at 1 h,[1]; [13],0.236 µg/mL
same,concentration at 2 h,[1]; [13],0.134 µg/mL
same,concentration at 4 h,[1]; [13],0.121 µg/mL
same,5-MTHF,[1]; [14],72.8 ng/mL
same,THF,[1]; [14],10.7 ng/mL
same,Total Uptake,[1]; [14],126.0 ng/mL
same,5-MTHF,[1]; [15],112.9 ng/mL
same,THF,[1]; [15],5.9 ng/mL
same,Total Uptake,[1]; [15],354.3 ng/mL
same,5-MTHF,[1]; [16],101.4 ng/mL
same,THF,[1]; [16],7.9 ng/mL
same,Total Uptake,[1]; [16],243.3 ng/mL
same,5-MTHF,[1]; [17],109.7 ng/mL
same,THF,[1]; [17],22.4 ng/mL
same,Total Uptake,[1]; [17],252.7 ng/mL
